Measurements from US20140221490A1, “METHODS OF TREATING PAIN” (Hospira, Inc., priority 2011, published 2014).
Where “and” joins values, the source holds several entries; their conditions need not be identical. Equal values may be shown once. Entries after “also recorded” stand apart in the source; their conditions may differ.

System: acute moderate to severe pain after orthopedic surgery
Test: Multiple-dose randomized double-blind active- and placebo-controlled trial after orthopedic surgery: efficacy (SPID, pain relief, rescue morphine, patient global evaluation)
Assay type: in vivo, human
Procedure: Patients were randomly assigned to diclofenac, ketorolac, or placebo (2:1:1 ratio).
Randomization was stratified by risk group at baseline. The groups were high-risk, non-high-risk, or higher-weight, which was greater than 210 lbs., or 95 kg. Randomization was also stratified by anticipated stay between a long stay, which was longer than 24 hours, versus a shorter stay. The high-risk patients weighed less than 110 lbs.
The diclofenac formulation was Dyloject™. […] Adverse events (adverse effects) were recorded between surgery and randomization, not just after baseline, in order to distinguish treatment-emergent adverse events.
Patients were encouraged to wait at least 30 minutes after study drug initiation to request morphine.
Patients assessed their pain at baseline and at specified time points through the next 24 hours. Those who remained at the site longer assessed their pain every three hours until discharged. Patients returned for follow-up 5-9 days after baseline, and they received a follow-up telephone call 30-37 days after baseline.
Efficacy analyses were conducted using Statistical Analysis Software®, and unless otherwise noted refer to the intent-to-treat population. The analysis of area under the pain intensity difference curve, pain intensity difference, area under the pain relief curve, patient global evaluation, and amount of rescue medication were based on analysis of covariance (ANCOVA) models, with treatment and center as factors and baseline pain as a covariate. Confidence intervals were based on the pooled standard deviation obtained from an ANCOVA model. Treatment differences were tested with linear contrasts.
All testing of statistical significance was 2-sided unless the test performed was inherently 1-sided. […] The area under the pain relief curve was analyzed similarly.
The proportion of patients attaining at least 30% reduction in pain intensity and the frequency of rescue medication use were analyzed with Cochran-Mantel-Haenszel tests, with center as a stratification variable.
For area under the curve calculations, evaluations after the administration of rescue medication or after withdrawal due to adverse events (adverse effects) or lack of efficacy were imputed in accordance with prespecified rules. For post hoc analyses of pain intensity, an even more conservative and simplified set of imputation rules was applied.
This was a multicenter, multiple-dose, multiple-day, randomized, double-blind, active- and placebo-controlled, parallel-group study.
Assignments were made according to a computer-generated random-number code. Randomization was also stratified by risk cohort (high-risk, non-high-risk, or high-weight [≧95 kg]) at baseline (see FIG. 10), and by anticipated long stay (>24 hours) versus shorter stay, resulting in six strata within the randomization schedule.
Patients in all treatment groups received a bolus IV injection every 6 hours until discharge. […] All study drugs were blinded to the investigator and the patient; dose levels of the individual study treatments were not blinded.
Patients were encouraged to wait at least 30 minutes after study drug initiation to request morphine, to allow primary study drug to begin to exert analgesic effects but were never denied.
The primary efficacy measure was the sum of pain intensity differences (SPID) over five intervals: 0-24, 0-48, 0-72, 0-96, and 0-120 hours which was calculated by summing the difference in pain intensity (by a 0-100 visual analog scale) from baseline at designated timepoints.

## O=C(c1ccccc1)c1ccc2n1CCC2C(=O)O (stereo not drawn) [Ketorolac, ketorolac tromethamine]
0-24, 0-48, 0-72, 0-96, 0-120 hours, P<0.0001
  total pain relief vs placebo: significantly better
All time intervals 0-24 to 0-120 hours, P<0.0001
  mean sum of pain intensity differences (SPID) vs placebo: significantly better; also recorded: significantly greater
At last assessment
  patients rating their drug as “very good” or “excellent” (patient global evaluation): 57.6%
Diclofenac 50 mg, ketorolac 30 mg, all time intervals, P<0.05
  SPID scores vs placebo, higher-weight group: better with both diclofenac 50 mg and ketorolac 30 mg compared with placebo
Dose by risk cohort, IV every 6 hours
  patients achieving clinically meaningful pain reduction (≧30% reduction in intensity): 75%
Elderly patients, low dose (diclofenac 18.75 mg, ketorolac 15 mg)
  amount of morphine used: 14.9 mg
human, in vivo
  median time from administration of study drug to administration of rescue medication: 137.0 min and 137 min
  time at which pain intensity difference first significantly differed from placebo (onset of analgesia): 30 min
Over the first five days
  total rescue morphine requirement: 18.1 mg
